Molecules are shown by their SMILES. “And” between values parts separate entries of the source, which are not always exact repeats. Equal values may be shown once.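 Growth conditions: 96-well plates. Treatment: test compound, 48 hours, 5 concentrations. Analysis: linear interpolation between bracketing concentrations; unreached endpoints set to highest concentration. Abbreviation: GI50, concentration required for 50% inhibition of growth. At the TGI there is no net growth.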

The GI50 is the concentration giving 50% growth inhibition. Broadly, the TGI is the concentration at which net growth stops. A lower TGI goes with more potent growth arrest.

Among the test systems are A549 NSCLC; LOX IMVI melanoma; MALME-3M melanoma; MOLT-4 leukemia; RXF 393 renal; SF-268 CNS; SK-MEL-28 melanoma; SK-OV-3 ovarian; SW-620 colon; TK-10 renal.
What all share (assay): DTP human tumour cell line panel, 48 h

In the case of `O=C(Nc1ccncc1)C(=O)c1cn(S(=O)(=O)c2cccc(F)c2)c2ccccc12`, the GI50 in the assay with A549 NSCLC was 13.2 µM; in the assay with LOX IMVI melanoma, 3.51 µM; with MALME-3M melanoma, 12.8 µM; in the assay with MOLT-4 leukemia, 4.18 µM; in the assay on RXF 393 renal it was 8.88 µM; in the assay with SF-268 CNS, 10.9 µM. Besides, the GI50 in the assay with SK-MEL-28 melanoma was 4.74 µM; with SK-OV-3 ovarian it was 20.3 µM; in the assay with SW-620 colon it was 3.02 µM; in the assay on TK-10 renal, 15.7 µM. The total growth inhibition concentration (TGI) is > 100 µM in the assay with A549 NSCLC; > 100 µM in the assay with LOX IMVI melanoma; > 100 µM in the assay with MALME-3M melanoma; > 100 µM in the assay on MOLT-4 leukemia; 66.8 µM in the assay on RXF 393 renal; > 100 µM with SF-268 CNS. The TGI was 60.5 µM with SK-MEL-28 melanoma, 76.5 µM with SK-OV-3 ovarian, > 100 µM in the assay with SW-620 colon and > 100 µM with TK-10 renal.
Turning to `C[N+]1=C(/C=C/c2ccc(O)c3ncccc23)C(C)(C)c2ccccc21`, the GI50 in the assay on A549 NSCLC is 2.96 µM; in the assay with LOX IMVI melanoma, 2.32 µM; in the assay on MALME-3M melanoma it was 2.01 µM; in the assay with MOLT-4 leukemia, 3.14 µM; in the assay with RXF 393 renal, 4 µM; in the assay with SF-268 CNS, 2.73 µM. For the same compound, the GI50 is 4.35 µM with SK-MEL-28 melanoma, 2.76 µM in the assay with SK-OV-3 ovarian, 2.85 µM in the assay on SW-620 colon and 3.43 µM in the assay with TK-10 renal. In addition, the TGI in the assay with A549 NSCLC was 13.4 µM; with LOX IMVI melanoma it was 5.74 µM; with MALME-3M melanoma, 5.43 µM; in the assay on MOLT-4 leukemia it was > 100 µM; with RXF 393 renal it was 16 µM; in the assay on SF-268 CNS, 14.1 µM. The TGI was found to be 16.4 µM in the assay on SK-MEL-28 melanoma, 12 µM in the assay with SK-OV-3 ovarian, 11.1 µM in the assay with SW-620 colon and 14.9 µM in the assay on TK-10 renal.
Regarding `O=C1c2cccc([N+](=O)[O-])c2C(=O)N1c1ncn[nH]1`, the concentration for total growth inhibition (TGI) in the assay on A549 NSCLC, in the assay with LOX IMVI melanoma, in the assay with MALME-3M melanoma, in the assay with MOLT-4 leukemia, in the assay with RXF 393 renal and with SF-268 CNS was > 100 µM throughout. In addition, the TGI in the assay on SK-MEL-28 melanoma, in the assay with SK-OV-3 ovarian, in the assay on SW-620 colon and in the assay on TK-10 renal was > 100 µM each time.
In the case of `CCCC1N2CCCCC2[C@@H]2c3[nH]c4ccccc4c3CCN12` (stereo partly drawn), the TGI with A549 NSCLC, in the assay with MALME-3M melanoma, in the assay on MOLT-4 leukemia, in the assay on RXF 393 renal, in the assay on SF-268 CNS and in the assay on SK-MEL-28 melanoma was > 100 µM in each case. Besides, the TGI in the assay with SK-OV-3 ovarian and in the assay with SW-620 colon was > 100 µM throughout.
Consider `O=C(N/C(=C\c1cccc([N+](=O)[O-])c1)c1nc2ccc([N+](=O)[O-])cc2[nH]1)c1ccccc1`, for which the TGI in the assay with A549 NSCLC is > 100 µM; in the assay on MALME-3M melanoma, > 100 µM; in the assay with MOLT-4 leukemia, 51.4 µM; in the assay on RXF 393 renal it was > 100 µM; in the assay on SF-268 CNS, > 100 µM; in the assay with SK-MEL-28 melanoma it was > 100 µM. The TGI with SK-OV-3 ovarian, in the assay with SW-620 colon and in the assay with TK-10 renal was > 100 µM throughout.
On to `CC(=O)OCC1OC(NC(=S)N/N=C2\CC(c3ccccc3)Oc3ccccc32)C(OC(C)=O)C(OC(C)=O)C1OC(C)=O` (stereo not drawn), for which the TGI in the assay on A549 NSCLC, in the assay on LOX IMVI melanoma, in the assay with MALME-3M melanoma, in the assay with MOLT-4 leukemia, in the assay on RXF 393 renal and with SF-268 CNS was > 100 µM in each case. The total growth inhibition concentration (TGI) in the assay on SK-OV-3 ovarian, in the assay on SW-620 colon and in the assay with TK-10 renal was > 100 µM in each case.
Consider `CC(=O)O[C@H]1C(=O)[C@@]2(C)C(C(OC(=O)c3ccccc3)[C@]3(O)CC(OC(=O)[C@H](OC(=O)CCC(=O)O)C(NC(=O)c4ccccc4)c4ccccc4)C(C)=C1C3(C)C)C1(OC(C)=O)COC1C[C@@H]2O` (stereo partly drawn), for which the concentration for total growth inhibition (TGI) was > 100 µM in the assay on A549 NSCLC; > 100 µM in the assay with LOX IMVI melanoma; > 100 µM with MALME-3M melanoma; 1.05 µM with MOLT-4 leukemia; 2.79 µM in the assay on RXF 393 renal; > 100 µM with SF-268 CNS. Also, the concentration for total growth inhibition (TGI) with SK-OV-3 ovarian is > 100 µM; in the assay on SW-620 colon it was > 100 µM; in the assay with TK-10 renal it was 97.1 µM and 15.4 µM. For the same compound, the GI50 in the assay on MALME-3M melanoma was < 0.01 µM and 0.0659 µM; in the assay with RXF 393 renal, < 0.0249 µM and 0.0528 µM; with SK-OV-3 ovarian, < 0.0159 µM and 0.0343 µM.
Take `CC(C)(CO)N1CCN(C(=S)Nc2ccccc2)CC1`: the concentration for total growth inhibition (TGI) in the assay on A549 NSCLC, in the assay on LOX IMVI melanoma, with MALME-3M melanoma, in the assay on RXF 393 renal, in the assay on SF-268 CNS and in the assay with SK-MEL-28 melanoma was > 100 µM in each case. The total growth inhibition concentration (TGI) in the assay with SK-OV-3 ovarian, in the assay with SW-620 colon and with TK-10 renal was > 100 µM each time.
In the case of `CCN(CC)C(c1ccc(N(C)C)cc1)C(c1ccc(N(C)C)cc1)N(CC)CC` (stereo not drawn), the concentration for total growth inhibition (TGI) in the assay on A549 NSCLC is > 73 µM; with MALME-3M melanoma it was 50.3 µM; with MOLT-4 leukemia, > 73 µM; in the assay with RXF 393 renal, > 73 µM; in the assay on SF-268 CNS, > 73 µM; in the assay with SK-MEL-28 melanoma it was > 73 µM. For the same compound, the TGI in the assay with SK-OV-3 ovarian, in the assay on SW-620 colon and in the assay on TK-10 renal was > 73 µM each time.
For `N#CSC1CCCCNC1=O` (stereo not drawn), the total growth inhibition concentration (TGI) is 60 µM with A549 NSCLC; > 100 µM in the assay with LOX IMVI melanoma; 31.4 µM with MALME-3M melanoma; 15 µM in the assay on MOLT-4 leukemia; 34 µM in the assay with RXF 393 renal; 26.2 µM in the assay on SF-268 CNS. The TGI in the assay with SK-MEL-28 melanoma was determined as 28.1 µM; with SK-OV-3 ovarian it was 21.9 µM; with TK-10 renal, 30.7 µM.
Regarding `Cn1c2ccccc2c2ccc3c(c21)C(=O)c1ccccc1C3=O`, the TGI with A549 NSCLC was > 100 µM; with LOX IMVI melanoma it was 29.4 µM; in the assay on MALME-3M melanoma it was 24.5 µM; with RXF 393 renal, 32 µM; with SF-268 CNS it was 66.6 µM; with SK-MEL-28 melanoma it was 29.4 µM. In addition, the values for the TGI in the assay on SK-OV-3 ovarian, in the assay on SW-620 colon and in the assay on TK-10 renal were 61.9 µM, > 100 µM and 39.1 µM, respectively.
Take `CNC(=O)C1CCc2nnc(-c3ccccc3)n21` (stereo not drawn): the concentration for total growth inhibition (TGI) with A549 NSCLC, in the assay with MALME-3M melanoma, in the assay on MOLT-4 leukemia, with RXF 393 renal, in the assay with SF-268 CNS and in the assay on SK-MEL-28 melanoma was > 100 µM throughout. The total growth inhibition concentration (TGI) in the assay with SK-OV-3 ovarian, with SW-620 colon and in the assay with TK-10 renal was > 100 µM throughout.

Values taken from PubChem BioAssay (NCI).
